Where a SMILES comes first, the peptide text is derived from it. [ ]: non-standard residue; d: D form. The star is where a group is joined. 2Nal = N[C@@H](Cc1ccc2ccccc2c1)C(=O)O; Cha = N[C@@H](CC1CCCCC1)C(=O)O; Aib = CC(C)(N)C(=O)O; Bz = O=C(c1ccccc1)*
Tests used:
[1] = target: T1, human Y2R (Homo sapiens, UniProt P49146); test: biochemical; format: binding
T1 sequence (P49146 1-381): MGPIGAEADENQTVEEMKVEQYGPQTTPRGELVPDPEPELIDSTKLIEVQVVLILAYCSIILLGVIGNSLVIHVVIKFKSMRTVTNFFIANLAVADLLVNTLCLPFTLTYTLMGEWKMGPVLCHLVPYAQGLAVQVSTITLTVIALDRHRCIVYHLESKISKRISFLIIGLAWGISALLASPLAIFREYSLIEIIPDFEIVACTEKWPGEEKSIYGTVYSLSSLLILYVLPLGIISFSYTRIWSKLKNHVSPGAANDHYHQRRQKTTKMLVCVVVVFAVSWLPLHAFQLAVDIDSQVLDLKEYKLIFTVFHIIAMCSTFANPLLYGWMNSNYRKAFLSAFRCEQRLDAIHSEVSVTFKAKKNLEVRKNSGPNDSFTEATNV

[2] = target: T1, human Y2R; test: biochemical; format: biochemical
[3] = system: male C57BL/6J mice; test: Food intake assay, bolus ip administration in lean mice; format: in vivo, mouse; details: 3 h after administration, vs saline, mean ± SD
[4] = Stability in 20% mouse serum/PBS; format: in vitro ADME; details: mouse, 20% mouse serum in PBS
[5] = Pharmacokinetics of PYY analogues in mice; format: in vivo; details: C57BL/6J, mouse, plasma, 1 mg/kg

SMILES | IC50 [1] | EC50 [2] | % food intake inhibition ([3]; bolus ip 500 nmol/kg) | % food intake inhibition ([3]; bolus ip 1000 nmol/kg) | remaining at 0.5 h [4] | % food intake inhibition ([3]; bolus ip 250 nmol/kg) | % food intake inhibition ([3]; bolus ip 2000 nmol/kg) | Cmax ([5]; ip) | MRT ([5]; ip) | Tmax ([5]; ip) | bioavailability ([5]; ip) | MRT ([5]; iv) | Vd ([5]; iv) | clearance ([5]; iv)
CC[C@H](C)[C@H](NC(=O)[C@H](CC1CCCCC1)NC(=O)[C@H](Cc1c[nH]cn1)NC(=O)[C@H](CCCNC(=N)N)NC(=O)c1ccccc1)C(=O)N[C@@H](CC(N)=O)C(=O)N[C@@H](CC(C)C)C(=O)N[C@@H](CC1CCCCC1)C(=O)N[C@H](C(=O)N[C@@H](CCCNC(=N)N)C(=O)N[C@@H](CCC(N)=O)C(=O)N[C@@H](CCCNC(=N)N)C(=O)N[C@@H](CC1CCCCC1)C(N)=O)[C@@H](C)O [Compound 8] (Bz-RH[Cha]INL[Cha]TRQR[Cha]-NH2) | 25 nM | 7.3 nM | 17 ± 8% | 46 ± 8% | 114% |  |  |  |  |  |  |  |  | 
CC[C@H](C)[C@H](NC(=O)[C@H](CC1CCCCC1)NC(=O)[C@H](Cc1c[nH]cn1)NC(=O)[C@H](CCCNC(=N)N)NC(=O)c1ccccc1)C(=O)N[C@@H](CC(N)=O)C(=O)N[C@@H](CC(C)C)C(=O)NC(C)(C)C(=O)N[C@H](C(=O)N[C@@H](CCCNC(=N)N)C(=O)N[C@@H](CCC(N)=O)C(=O)N[C@@H](CCCNC(=N)N)C(=O)N[C@@H](CC1CCCCC1)C(N)=O)[C@@H](C)O [Compound 10] (Bz-RH[Cha]INL[Aib]TRQR[Cha]-NH2) | 4.8 nM | 1.1 nM | 8 ± 7% | 39 ± 3% | 94% | 3 ± 4% | 60 ± 7% |  |  |  |  |  |  | 
CC[C@H](C)[C@H](NC(=O)[C@H](CC1CCCCC1)NC(=O)[C@H](Cc1c[nH]cn1)NC(=O)[C@H](CCCNC(=N)N)NC(=O)c1ccccc1)C(=O)N[C@@H](CC(N)=O)C(=O)N[C@@H](Cc1c[nH]c2ccccc12)C(=O)NC(C)(C)C(=O)N[C@H](C(=O)N[C@@H](CCCNC(=N)N)C(=O)N[C@@H](CCC(N)=O)C(=O)N[C@@H](CCCNC(=N)N)C(=O)N[C@@H](CC1CCCCC1)C(N)=O)[C@@H](C)O [Compound 11] (Bz-RH[Cha]INW[Aib]TRQR[Cha]-NH2) | 11 nM | 2.4 nM | 12 ± 3% | 36 ± 8% | 95% |  | 52 ± 5% |  |  |  |  |  |  | 
CC[C@H](C)[C@H](NC(=O)[C@H](CC1CCCCC1)NC(=O)[C@H](Cc1c[nH]cn1)NC(=O)[C@H](CCCNC(=N)N)NC(=O)c1ccccc1)C(=O)N[C@@H](CC(N)=O)C(=O)N[C@@H](Cc1c[nH]c2ccccc12)C(=O)N[C@@H](CCCCN)C(=O)N[C@H](C(=O)N[C@@H](CCCNC(=N)N)C(=O)N[C@@H](CCC(N)=O)C(=O)N[C@@H](CCCNC(=N)N)C(=O)N[C@@H](CC1CCCCC1)C(N)=O)[C@@H](C)O [Compound 12] (Bz-RH[Cha]INWKTRQR[Cha]-NH2) | 2.4 nM | 0.84 nM |  | 4 ± 13% | 51% |  |  |  |  |  |  |  |  | 
CC[C@H](C)[C@H](NC(=O)[C@H](Cc1ccc2ccccc2c1)NC(=O)[C@H](Cc1c[nH]cn1)NC(=O)[C@H](CCCNC(=N)N)NC(=O)c1ccccc1)C(=O)N[C@@H](CC(N)=O)C(=O)N[C@@H](Cc1c[nH]c2ccccc12)C(=O)N[C@H](C(=O)N[C@H](C(=O)N[C@@H](CCCNC(=N)N)C(=O)N[C@@H](CCC(N)=O)C(=O)N[C@@H](CCCNC(=N)N)C(=O)N[C@@H](CC1CCCCC1)C(N)=O)[C@@H](C)O)[C@@H](C)CC [Compound 15] (Bz-RH[2Nal]INWITRQR[Cha]-NH2) | 19 nM | 7.3 nM | 19 ± 7% |  | 100% |  |  |  |  |  |  |  |  | 
CC(C)C[C@H](NC(=O)[C@H](CC(N)=O)NC(=O)[C@H](CC1CCCCC1)NC(=O)[C@H](CC1CCCCC1)NC(=O)[C@H](Cc1cnc[nH]1)NC(=O)[C@H](CCCNC(=N)N)NC(=O)c1ccccc1)C(=O)NC(C)(C)C(=O)N[C@H](C(=O)N[C@@H](CCCNC(=N)N)C(=O)N[C@@H](CCC(N)=O)C(=O)N[C@@H](CCCNC(=N)N)C(=O)N[C@@H](CC1CCCCC1)C(N)=O)[C@@H](C)O [Compound 21, benzoyl-[Cha^27,28,36,Aib^31]PYY(25–36)] (Bz-RH[Cha][Cha]NL[Aib]TRQR[Cha]-NH2) |  |  |  |  |  |  |  | 406 nM | 75 min | 15 min | 6.8% | 27 min | 0.073 L/kg | 2.7 mL/min/kg
